Results taken from US20210015857A1, “METHOD FOR IMMUNOTHERAPY DRUG TREATMENT” (The University of Western Australia, priority 2018, published 2021).

What was measured:
[1] = system: Renca kidney cancer tumours; test: Oral retinoids combined with ICB in Renca kidney cancer-bearing mice; format: in vivo, mouse; conditions: retinoid oral 6 days from day 9, ICB days 12, 14, 16 (FIG. 24)
Protocol: The following retinoids and dosages were employed: Bexarotene (Saphire Bioscience) was dosed at 100 mg/kg; tretinoin and isotretinoin (Sigma-Aldrich) were all dosed at 10 mg/kg.

[2] = system: CT26 colorectal tumours; test: pSTAT1 immunohistochemistry of tumours after tretinoin; format: in vivo, mouse; conditions: tretinoin 10 mg/kg (FIG. 22A, B)
Protocol: For immunohistochemical staining of STAT1 and pSTAT1, slides of 4-μm thickness were cut from formalin-fixed, parafin-embedded (FFPE) tissue blocks. Subsequently, slides were deparafinized in two changes of xylene for about 5 min followed by rehydration in changes of 100%, 96%, 70% and 40% ethanol and distilled water. Next, for STAT1 staining, antigen retrieval using 10 mM citrate buffer (pH 6.0) was performed for about 10 min at 121° C. using a pressure cooker (the PT-module, Thermo scientific, labvision). For pSTAT1 staining, slides were sub-boiled in 1 M EDTA buffer (pH 8.0) for about 10 minutes in a microwave. Slides were rinsed in TBST and the endogenous peroxidase was blocked using 3% hydrogen peroxidase (Sigma) in distilled water. Sections were washed again in TBST and blocked with goat serum (Vectastain) diluted in PBS as per manufacturer's instructions. Primary antibody, STAT1 or pSTAT1 (Cell Signaling, dilution: 1/800 and 1/200 respectively), was incubated for 60 minutes at room temperature (RT). Sections were washed and secondary antibody, goat anti-Rb IgG-HRP (Santa Cruz), was incubated for about 30 minutes at RT, before washing again. Betazoid DAB chromogen (Biocare Medical) was prepared as per manufacturer's instructions. Chromogen was applied, sections were monitored for the development of a brown colour and the reaction was stopped with H2O. […]

[3] = system: Renca kidney cancer; test: pSTAT1 flow cytometry of tumours after tretinoin; format: in vivo, mouse; conditions: tretinoin (FIG. 22C)
Protocol: (§1) For detection of phospho-STAT1, dissociated tumours were stained with surface antibodies, fixed with 1.5% formaldehyde for 10 minutes, then permeabilized with ice-cold methanol at 4° C. for 10 minutes. Cells were stained with a rabbit-anti-pSTAT1 antibody (Tyr701) -PE (Cell Signaling Technology) for 30 minutes at room temperature (RT).
To test whether retinoids induce the ICB response-associated phenotype characterised by increased NK cells, inflammatory markers and pSTAT1 positive leukocytes in the tumour, Renca kidney cancer-bearing mice were treated for […] with oral tretinoin (10 mg/kg) starting on day 12 and harvested tumours on day 15 for flow cytometry. In subsequent experiments AB1-HA mesothelioma or CT26 colorectal cancer tumour-bearing mice were treated with tretinoin for 3 days at 10 mg/kg i.p., starting on day 10 and harvested tumours on day 13 for flow cytometry and immunohistochemistry.

[4] = system: AB1-HA mesothelioma tumours; test: Tretinoin combined with ICB in AB1-HA tumour-bearing mice, tumour growth; format: in vivo, mouse
Protocol: […] The administration of tretinoin to the mice started either 3 days before ICB or at the same time as the ICB (arm 6). Tretinoin was dosed at three dosages; 10 mg/kg (arm 3), 5 mg/kg (arm 4) or 1 mg/kg (arm 5) and was given for 9 days in total.

[5] = system: urothelial cancer; conditions: 348 urothelial cancer patients; cited from earlier work
[6] = system: melanoma; conditions: melanoma cohort n=33; cited from earlier work
[7] = system: AE17 mesothelioma tumours; test: Poly(I:C) pretreatment followed by ICB with or without IFNAR blocking antibody, tumour growth; format: in vivo, mouse
Protocol: To test whether the mechanism underlying the priming effect of Poly-I:C was mediated through IFN alpha/beta induction (as discussed in Example 6), priming experiments were repeated while adding blocking antibodies against the IFN alpha/beta receptor (IFNAR). C57BL/6 AE17 mesothelioma tumour-bearing mice were treated with CPB on day 22 after tumour inoculation, with or without pretreatment of 3 days of 50 μg s.c. Poly-I:C in the tumour area (day 17-19), with or without blocking antibodies against IFNAR (e.g., […] monoclonal antibody MAR1-5A3 as sourced from BiXcell) (0.5 mg i.p., 3 times/week) starting at the same time.

[8] = system: AE17 mesothelioma tumours; test: Flow cytometry of AE17 tumours after intratumoural IFN alpha or poly(I:C) pretreatment; format: in vivo, mouse; conditions: intratumoural 3 days, vs PBS (FIG. 17)
Protocol: For flow cytometry, tumours were harvested and immediately submerged in cold PBS, cut into 1-2 mm pieces with a scalpel blade and dissociated using the GentleMACS system. Fc block (anti-CD16/CD32, BD) was used for 10 minutes on ice. UV Zombie live/dead (Biolegend) was used to discriminate live cells. Cells were permeabilized and fixed using FoxP3 fix/Perm buffer kit (Biolegend) before addition of antibodies for 20 minutes at RT. See Supplementary Table 2 for antibody details. Cells were kept in stabilizing fixative until acquisition. Data were acquired on a BD Fortessa flow cytometer and analyzed using FlowJo software (TreeStar).
as §1
To verify the potential of recombinant IFN alpha to induce the response-associated phenotype (i.e., to sensitise the tumour cellular microenvironment to ICB) similarly to Poly-I:C, AE17 mesothelioma tumour-bearing mice were pretreated with Poly-I:C or recombinant IFN alpha (: R&D systems) intratumourally for 3 days (or PBS control). […]

With `C=C(c1ccc(C(=O)O)cc1)c1cc2c(cc1C)C(C)(C)CCC2(C)C` [bexarotene] the “percentage of complete regression after combination therapy with ICB, compared to ICB alone” value [1] was “increased percentage of complete regression”.
For `CC1=C(/C=C/C(C)=C/C=C/C(C)=C\C(=O)O)C(C)(C)CCC1` [isotretinoin, 13-cis-retinoic acid], the “percentage of complete regression after combination therapy with ICB, compared to ICB alone” value [1] was “increased percentage of complete regression”.
With `CC1=C(/C=C/C(C)=C/C=C/C(C)=C/C(=O)O)C(C)(C)CCC1` [tretinoin, all-trans retinoic acid] the “pSTAT1 immune cell infiltrates in tumours (immunohistochemistry)” value [2] was “increased patches of pSTAT1 immune cell infiltrates”, the “pSTAT1 positive leukocytes in tumours (flow cytometry)” value [3] was “increased pSTAT1 positive leukocytes in tumours, particularly in MHC class II positive cells” and the “efficacy of ICB, retinoid before ICB vs at same time as ICB” value ([4]; AB1-HA (FIG. 21)) was “markedly improved the efficacy of ICB compared to when the retinoid was administered at same time as ICB”. For the same molecule, the “efficacy of combination with anti-PD-L1 antibody alone as ICB” value ([4]; AB1-HA, tretinoin 10 mg/kg i.p. 9 days from day 6, anti-PD-L1 days 8, 10, 12 (FIG. 23)) was “more efficacious than use of the antibody alone” and the “response of the tumours to ICB” value ([4]; AB1-HA, tretinoin 10, 5 or 1 mg/kg for 9 days starting 3 days before anti-CTLA4/anti-PD-L1 (FIG. 21)) was “improved the response of the tumours to ICB in a dose-dependent manner”.
In the case of atezolizumab: anti-PD-L1 antibody, the “best response: complete responders (CR), number of patients” value [5] is listed as 25, the “best response: partial responders (PR), number of patients” value [5] is listed as 43 and the “best response: progressors (PD), number of patients” value [5] is listed as 167. The “best response: stable disease (SD), number of patients” value [5] was 63.
For nivolumab: anti-PD1 antibody, the “non-responsive (PD), number of patients” value [6] is given as 23 and the “responsive (CR and PR), number of patients” value [6] is given as 10.
In the case of “olyinosinic:polycytidylic acid [poly(I:C)]”, the “beneficial effect of pretreatment under IFNAR blockade” value ([7]; cotreatment with IFNAR blocking antibodies (FIG. 16)) is reported as “abrogated”, the tumour growth ([7]; poly(I:C) 3 days before ICB, vs ICB alone (FIG. 16)) is reported as “clear delay in tumour growth compared to ICB alone” and the “NK infiltration (NK cells of all leukocytes)” value [8] is reported as “increased NK cell numbers”. The “STAT1 phosphorylation (pSTAT1 activation)” value [8] was “pSTAT1 activation”.
